From patent publication US9371336B2, “Compounds for treating spinal muscular atrophy” (PTC Therapeutics Inc., priority 2012, dated 2016)

Experiments:
[1] = tested on: SMN2 minigene mRNA (SMN2-A minigene construct); assay: SMN2 minigene mRNA splicing RT-qPCR assay in cultured cells; type: cell-based, human; conditions: Homo sapiens, HEK293-H; HEK293H cells stably transfected with SMN2-A minigene, 24 hours, 7-point concentration data; concentration giving 1.5-fold SMN2 full length mRNA relative to vehicle-treated cells; read-out: EC1.5x for production of full length SMN2 mRNA
How it was run: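 Full-length SMN2 minigene mRNA, measured by exon 7/luciferase-specific RT-qPCR that excludes endogenous SMN1/SMN2, was normalized to GAPDH and expressed relative to vehicle-treated cells via modified ΔΔCt. Stably transfected HEK293H cells received compound (7-point, 3.16-fold series, duplicates) for 24 h at 37 °C.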

Smn protein = Smn protein assay (HTRF) in cultured cells (SMA patient fibroblasts GM03813); type: cell-based, human; conditions: 48 hours; for EC1.5x for Smn protein expression: SMA patient fibroblast cells (GM03813), HTRF, 7-point concentration data, concentration producing 1.5 times Smn protein vs DMSO vehicle control; for maximum fold (Fold) increase of Smn protein: SMA patient fibroblast cells, 7-point concentration curve, relative to vehicle control
How it was run: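 Smn level is expressed as fold over vehicle, from blank-corrected ΔF of the 665/620 nm HTRF ratio. Readout used anti-SMN d2 and kryptate antibodies on RIPA lysates. GM03813 SMA fibroblasts had 48 h exposure at 37° C to seven 3.16-fold compound dilutions, run in triplicate.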

Row | SMILES | EC (1.5-fold) [1] [µM] | EC1.5x for Smn protein expression (Smn protein) | maximum fold (Fold) increase of Smn protein (Smn protein) | melting point [°C]
1 | Cc1cn2cc(-c3cc4ccc(N5C[C@H](C)NC[C@H]5C)nc4oc3=O)nc2c(C)n1 [Cpd 95, 3-(6,8-dimethylimidazo[1,2-a]pyrazin-2-yl)-7-[(2R,5S)-2,5-dimethylpiperazin-1-yl]-2H-pyrano[2,3-b]pyridin-2-one] | ≤ 0.1 | **** (an EC1.5×≦0.3 μM is indicated by four stars (****)) | ***** (a fold increase >1.65 is indicated by five stars (*****)) | 190 to 192
2 | Cc1ccn2cc(-c3cc4ccc(N5C[C@H](C)N(C)C[C@H]5C)nc4oc3=O)nc2c1 [Cpd 96, 3-(7-methylimidazo[1,2-a]pyridin-2-yl)-7-[(2R,5S)-2,4,5-trimethylpiperazin-1-yl]-2H-pyrano[2,3-b]pyridin-2-one] | 0.3 to 1 |  | *** (a fold increase between >1.35 and ≦1.5 is indicated by three stars (***)) | 114 to 117
3 | C[C@@H]1CN(C)[C@@H](C)CN1c1ccc2cc(-c3cn4cccc(F)c4n3)c(=O)oc2n1 [Cpd 97, 3-(8-fluoroimidazo[1,2-a]pyridin-2-yl)-7-[(2R,5S)-2,4,5-trimethylpiperazin-1-yl]-2H-pyrano[2,3-b]pyridin-2-one] | 0.1 to 0.3 | ** (an EC1.5× between >1 and ≦3 μM is indicated by two stars (**)) | **** (a fold increase between >1.5 and ≦1.65 is indicated by four stars (****)) | 194 to 197
4 | C[C@@H]1CN(C)[C@@H](C)CN1c1ccc2cc(-c3cn4cccc(Cl)c4n3)c(=O)oc2n1 [Cpd 98, 3-(8-chloroimidazo[1,2-a]pyridin-2-yl)-7-[(2R,5S)-2,4,5-trimethylpiperazin-1-yl]-2H-pyrano [2,3-b]pyridin-2-one] | 0.1 to 0.3 | ** (an EC1.5× between >1 and ≦3 μM is indicated by two stars (**)) | **** (a fold increase between >1.5 and ≦1.65 is indicated by four stars (****)) | 191 to 196
5 | Cc1ccn2cc(-c3cc4ccc(N5C[C@@H](C)N[C@@H](C)C5)nc4oc3=O)nc2n1 [Cpd 99, 7-[(3R,5S)-3,5-dimethylpiperazin-1-yl]-3-(7-methylimidazo[1,2-a]pyrimidin-2-yl)-2H-pyrano[2,3-b]pyridin-2-one] | 0.1 to 0.3 |  | *** (a fold increase between >1.35 and ≦1.5 is indicated by three stars (***)) | 270 to 273
6 | Cc1ccn2cc(-c3cc4ccc(N5C[C@@H](C)N[C@@H](C)C5)nc4oc3=O)nc2c1 [Cpd 100, 7-[(3R,5S)-3,5-dimethylpiperazin-1-yl]-3-(7-methylimidazo[1,2-a]pyridin-2-yl)-2H-pyrano[2,3-b]pyridin-2-one] | ≤ 0.1 |  | *** (a fold increase between >1.35 and ≦1.5 is indicated by three stars (***)) | 246 to 249
7 | Cc1cn2cc(-c3cc4ccc(N5C[C@@H](C)N[C@@H](C)C5)nc4oc3=O)nc2cn1 [Cpd 101, 7-[(3R,5S)-3,5-dimethylpiperazin-1-yl]-3-(6-methylimidazo[1,2-a]pyrazin-2-yl)-2H-pyrano[2,3-b]pyridin-2-one] | ≤ 0.1 | *** (an EC1.5× between >0.3 μM and ≦1 μM is indicated by three stars (***)) | **** (a fold increase between >1.5 and ≦1.65 is indicated by four stars (****)) | 279 to 281
8 | Cc1cn2cc(-c3cc4ccc(N5C[C@H](C)N(C)C[C@H]5C)nc4oc3=O)nc2cn1 [Cpd 103, 3-(6-methylimidazo[1,2-a]pyrazin-2-yl)-7-[(2R,5S)-2,4,5-trimethylpiperazin-1-yl]-2H-pyrano[2,3-b]pyridin-2-one] | 0.1 to 0.3 | *** (an EC1.5× between >0.3 μM and ≦1 μM is indicated by three stars (***)) | **** (a fold increase between >1.5 and ≦1.65 is indicated by four stars (****)) | 248 to 250
9 | Cc1cn2cc(-c3cc4ccc(N5CCCNCC5)nc4oc3=O)nc2cn1.Cl [Cpd 104, 7-(1,4-diazepan-1-yl)-3-(6-methylimidazo[1,2-a]pyrazin-2-yl)-2H-pyrano[2,3-b]pyridin-2-one hydrochloride] | ≤ 0.1 |  | ** (a fold increase between >1.2 and ≦1.35 is indicated by two stars (**)) | 267 to 269
10 | Cc1cn2cc(-c3cc4ccc(N5CCCN(C)CC5)nc4oc3=O)nc2cn1 [Cpd 105, 7-(4-methyl-1,4-diazepan-1-yl)-3-(6-methylimidazo[1,2-a]pyrazin-2-yl)-2H-pyrano[2,3-b]pyridin-2-one] | ≤ 0.1 | ** (an EC1.5× between >1 and ≦3 μM is indicated by two stars (**)) | *** (a fold increase between >1.35 and ≦1.5 is indicated by three stars (***)) | 290 to 293
11 | Cc1cc(F)c2nc(-c3cc4ccc(N5C[C@@H](C)N[C@@H](C)C5)nc4oc3=O)cn2c1 [Cpd 106, 7-[(3R,5S)-3,5-dimethylpiperazin-1-yl]-3-(8-fluoro-6-methylimidazo[1,2-a]pyridin-2-yl)-2H-pyrano[2,3-b]pyridin-2-one] | ≤ 0.1 | *** (an EC1.5× between >0.3 μM and ≦1 μM is indicated by three stars (***)) | *** (a fold increase between >1.35 and ≦1.5 is indicated by three stars (***)) | 280 to 283
12 | Cc1cc(F)c2nc(-c3cc4ccc(N5CCCNCC5)nc4oc3=O)cn2c1.Cl [Cpd 107, 7-(1,4-diazepan-1-yl)-3-(8-fluoro-6-methylimidazo[1,2-a]pyridin-2-yl)-2H-pyrano[2,3-b]pyridin-2-one hydrochloride] | ≤ 0.1 | *** (an EC1.5× between >0.3 μM and ≦1 μM is indicated by three stars (***)) | **** (a fold increase between >1.5 and ≦1.65 is indicated by four stars (****)) | 276 to 279
13 | O=c1oc2nc(N3CCNCC3)ccc2cc1-c1cn2cccc(F)c2n1 [Cpd 108, 3-(8-fluoroimidazo[1,2-a]pyridin-2-yl)-7-(piperazin-1-yl)-2H-pyrano[2,3-b]pyridin-2-one] | ≤ 0.1 | **** (an EC1.5×≦0.3 μM is indicated by four stars (****)) | **** (a fold increase between >1.5 and ≦1.65 is indicated by four stars (****)) | 231 to 235
14 | O=c1oc2nc(N3CCNCC3)ccc2cc1-c1cn2cccc(Cl)c2n1 [Cpd 109, 3-(8-chloroimidazo[1,2-a]pyridin-2-yl)-7-(piperazin-1-yl)-2H-pyrano[2,3-b]pyridin-2-one] | ≤ 0.1 | **** (an EC1.5×≦0.3 μM is indicated by four stars (****)) | **** (a fold increase between >1.5 and ≦1.65 is indicated by four stars (****)) | 233 to 237
